The source of these data is EPA's ToxValDB 9.5.

Data set [1] concerns Rattus norvegicus. As to conditions: uterotrophic, injection, subcutaneous, Active.
The test system of data set [2] is Rattus norvegicus.
The test system of data set [3] is Rattus norvegicus. As to conditions: short-term; duration: 14 days; oral; gavage; Crj:CD.
The subject of data set [4] is Rattus norvegicus. Conditions: subchronic; duration: 13 weeks; oral; diet; M/F; Wistar; hematological.
For data set [5], the system named is Rattus norvegicus. As to conditions: subchronic; oral; gavage; M; Sprague-Dawley; Clinical Observation: Diarrhea Soft feces + Body Weight Changes: decrease, R + Food Consumption: decrease + Urinalysis: Urine volume ….
The mark [6] stands for this setting: reproduction developmental, duration: 7 days, oral, gavage, F, Sprague-Dawley, generation: P0, P0: Developmental: Whole Body: Litter Size + P0: Developmental: Whole Body: Male Pups per Pups Sexed.
The mark [7] stands for this setting: short-term, duration: 21 days, oral, gavage, M, Sprague-Dawley, Endocrine: Multi-Organ: Estradiol, Serum + Endocrine: Multi-Organ: Follicular Stimulating Hormone (FSH), Serum + Endocrine: Multi-Organ: ….
Setting [8] is: short-term, duration: 21 days, oral, gavage, M, Sprague-Dawley, Endocrine: Multi-Organ: Estradiol, Serum + Endocrine: Multi-Organ: Follicular Stimulating Hormone (FSH), Serum + Metabolic: Multi-Organ: ….
Where [9] appears, read: short-term, duration: 21 days, oral, gavage, M, Sprague-Dawley, Endocrine: Multi-Organ: Testosterone (T), Serum + Reproductive: Epididymis: Epididymis Weight, Absolute + Reproductive: Testis: Testis ….
[10] abbreviates: short-term, duration: 28 days, oral, gavage, F, Crl:CD(SD), Kidney: Kidney, Right, Pelvis, Dilation + Liver: Liver Weight, Relative + Liver: Liver, Large.
Where [11] appears, read: short-term, duration: 28 days, oral, gavage, F, Crl:CD(SD), Whole Body: Clinical Observations.
Where [12] appears, read: short-term, duration: 28 days, oral, gavage, M, Crl:CD(SD), Liver: Hepatocellular Hypertrophy + Liver: Liver Weight, Relative + Liver: Liver, Large.
Setting [13] is: short-term, duration: 3 days, injection, subcutaneous, F, Crj:CD, uterus: uterine dry weight (absolute) + uterus: uterine dry weight (relative) + uterus: uterine wet weight (absolute) + uterus: uterine wet ….
The mark [14] stands for this setting: short-term, duration: 28 days, oral, gavage, F, Crl:CD(SD), A/G ratio + phospholipid + triglyceride.
Where [15] appears, read: short-term, duration: 28 days, oral, gavage, F, Crl:CD(SD), cholinesterase + inorganic phosphorus + kidney: abnormal kidney histopathological changes.
[16] abbreviates: short-term, duration: 28 days, oral, gavage, F, Crl:CD(SD), uterus: uterine dry weight (absolute) + uterus: uterine dry weight (relative) + uterus: uterine wet weight (absolute) + uterus: uterine wet ….
Where [17] appears, read: short-term, duration: 28 days, oral, gavage, M, Crl:CD(SD), alanine aminotransferase + body weight + brain: brain weight + gamma-glutamyl transpeptidase + heart: heart weight + hematocrit + kidney: ….
The mark [18] stands for this setting: short-term, duration: 28 days, oral, gavage, M, Crl:CD(SD), heart: heart weight.

SMILES strings stand for the structures. Values joined by “and” are separate entries in the source; they are usually repeats but may differ in a detail not shown here. Identical values can stand only once.

Turning to `CCCCCCCCCCCCc1ccc(O)cc1` [4-Dodecylphenol], the LEL in the data set with Rattus norvegicus [1] (duration: 3 days) is 40 mg/kg-day and 39.7 mg/kg-day.

Regarding `C[C@]12CCC(=O)C=C1CC[C@@H]1[C@@H]2CC[C@]2(C)C(=O)CC[C@@H]12` [4-Androstene-3,17-dione], the LEL was determined as 5 mg/day in the data set on Rattus norvegicus [1] (duration: 3 days), 5 mg/kg-day in the data set with Rattus norvegicus [1] (duration: 7 days), 2 mg/day with Rattus norvegicus [1] (duration: 14 days) and 1 mg/kg-day in the data set on Rattus norvegicus [1] (duration: 36 days).

One may read the NOAEL as the highest tested level that showed no adverse finding. As a reminder, the LOAEL is the lowest tested level that showed an adverse finding. Consider `O=C(O)C(F)(F)C(F)(F)C(F)(F)C(F)(F)C(F)(F)C(F)(F)C(F)(F)C(F)(F)C(F)(F)C(F)(F)C(F)(F)C(F)(F)F` [Perfluorotridecanoic acid], for which the NOAEL with Rattus norvegicus [2] (developmental, duration: 7 days, oral, gavage, M, Sprague-Dawley, generation: F1, F1: Developmental: Testis: Fetal Leydig cell number + F1: Developmental: Trunk: Anogenital Distance + F1: Developmental: Whole Body: Pup …) was determined as 5 mg/kg-day; in the data set with Rattus norvegicus [2] (setting [6]), 5 mg/kg-day; in the data set on Rattus norvegicus [2] (reproduction developmental, duration: 7 days, oral, gavage, F, Sprague-Dawley, generation: P0, P0: Whole Body: Whole Body: Clinical Observations, Unspecified + P0: Whole Body: Whole Body: Maternal Body Weight), 10 mg/kg-day; in the data set on Rattus norvegicus [2] (setting [7]) it was 1 mg/kg-day; in the data set on Rattus norvegicus [2] (setting [8]) it was 5 mg/kg-day; in the data set on Rattus norvegicus [2] (setting [9]) it was 1 mg/kg-day. Moreover, the NOAEL with Rattus norvegicus [2] (short-term, duration: 21 days, oral, gavage, M, Sprague-Dawley, Whole Body: Whole Body: Body Weight Change + Whole Body: Whole Body: Body Weight, Absolute + Whole Body: Whole Body: Clinical Observation …) is 10 mg/kg-day. Also, the lowest-observed-adverse-effect level (LOAEL) in the data set with Rattus norvegicus [2] (setting [6]) was found to be 10 mg/kg-day; with Rattus norvegicus [2] (reproduction developmental, duration: 7 days, oral, gavage, F, Sprague-Dawley, generation: P0, P0: Developmental: Whole Body: Litter Size + P0: Developmental: Whole Body: Male Pups per Pups Sexed + P0: Reproductive: Whole Body: Birth …) it was 1 mg/kg-day; in the data set on Rattus norvegicus [2] (reproduction developmental, duration: 7 days, oral, gavage, F, Sprague-Dawley, generation: P0, P0: Reproductive: Whole Body: Birth rate), 1 mg/kg-day; with Rattus norvegicus [2] (reproduction developmental, duration: 7 days, oral, gavage, M, Sprague-Dawley, generation: F1, F1: Endocrine: Multi-Organ: Testosterone (T), Serum), 1 mg/kg-day; in the data set on Rattus norvegicus [2] (setting [7]), 5 mg/kg-day; in the data set with Rattus norvegicus [2] (setting [8]), 10 mg/kg-day. Also, the LOAEL with Rattus norvegicus [2] (setting [9]) stood at 5 mg/kg-day.

In the case of `CCC(F)(F)C(F)(F)C(F)(F)C(F)(F)C(F)(F)C(F)(F)F` [1-(Perfluorohexyl)ethane], the no-observed-adverse-effect level (NOAEL) in the data set on Rattus norvegicus [2] (short-term, duration: 28 days, oral, gavage, F, Crl:CD(SD), Adrenal: Adrenal Gland Histopathology + Adrenal: Adrenal Gland Weight, Absolute + Adrenal: Adrenal Gland Weight, Relative + Bladder: Urinary…) is 200 mg/kg-day; with Rattus norvegicus [2] (setting [10]), 40 mg/kg-day; in the data set with Rattus norvegicus [2] (setting [11]) it was 8 mg/kg-day; in the data set with Rattus norvegicus [2] (short-term, duration: 28 days, oral, gavage, M, Crl:CD(SD), Adrenal: Adrenal Gland Histopathology + Adrenal: Adrenal Gland Weight, Absolute + Adrenal: Adrenal Gland Weight, Relative + Blood: Activated…), 200 mg/kg-day; with Rattus norvegicus [2] (setting [12]), 40 mg/kg-day. For the same compound, the results for the lowest observed adverse effect level (LOAEL) with Rattus norvegicus [2] (setting [10]), in the data set on Rattus norvegicus [2] (setting [11]) and in the data set on Rattus norvegicus [2] (setting [12]) were 200 mg/kg-day, 40 mg/kg-day and 200 mg/kg-day, respectively.

Regarding `CC(C)(C)c1ccc(O)cc1` [4-(1,1-Dimethylethyl)phenol], the lowest observed adverse effect level (LOAEL) in the data set on Rattus norvegicus [3] is 250 mg/kg-day. For the same compound, the LEL in the data set with Rattus norvegicus [1] (duration: 3 days) is 100 mg/kg-day and 99.2 mg/kg-day.

Compound `[Sn]` [Tin] returned a no observed adverse effect level (NOAEL) in the data set with Rattus norvegicus [4] of 32 mg/kg-day.

`Oc1ccc(C2(c3ccc(O)cc3)CCCCC2)cc1` [Bisphenol Z]: the LOEL with Rattus norvegicus [2] (setting [13]) worked out at 30 mg/kg-day; in the data set with Rattus norvegicus [2] (setting [14]), 100 mg/kg-day; with Rattus norvegicus [2] (setting [15]) it was 300 mg/kg-day; with Rattus norvegicus [2] (setting [16]), 30 mg/kg-day; in the data set on Rattus norvegicus [2] (setting [17]) it was 300 mg/kg-day; in the data set on Rattus norvegicus [2] (setting [18]), 100 mg/kg-day. Further, the LOEL in the data set on Rattus norvegicus [2] (short-term, duration: 28 days, oral, gavage, M, Crl:CD(SD), thymus: serum T4) stood at 30 mg/kg-day. The NOEL in the data set on Rattus norvegicus [2] (setting [13]) turned out to be 6 mg/kg-day; in the data set with Rattus norvegicus [2] (setting [14]), 30 mg/kg-day; in the data set on Rattus norvegicus [2] (setting [15]), 100 mg/kg-day; in the data set with Rattus norvegicus [2] (setting [16]) it was 6 mg/kg-day; in the data set with Rattus norvegicus [2] (setting [17]) it was 100 mg/kg-day; with Rattus norvegicus [2] (setting [18]) it was 30 mg/kg-day. In addition, the NOEL in the data set on Rattus norvegicus [5] was found to be 20 mg/kg-day.
